Data from paper PMC5807903, “Combination of Virtual Screening Protocol by in Silico toward the Discovery of Novel 4-Hydroxyphenylpyruvate Dioxygenase Inhibitors” (Frontiers in Chemistry, 2018).
Read-outs that look alike come from different tables or passages of the source.

Target: T1, AtHPPD (Arabidopsis thaliana, UniProt P93836)
T1 construct: gene HPD; recombinant enzyme supplied by Guangfu Yang research team; Fe(II) enzyme; PDB 1TFZ used for docking only
T1 sequence (P93836 1-445): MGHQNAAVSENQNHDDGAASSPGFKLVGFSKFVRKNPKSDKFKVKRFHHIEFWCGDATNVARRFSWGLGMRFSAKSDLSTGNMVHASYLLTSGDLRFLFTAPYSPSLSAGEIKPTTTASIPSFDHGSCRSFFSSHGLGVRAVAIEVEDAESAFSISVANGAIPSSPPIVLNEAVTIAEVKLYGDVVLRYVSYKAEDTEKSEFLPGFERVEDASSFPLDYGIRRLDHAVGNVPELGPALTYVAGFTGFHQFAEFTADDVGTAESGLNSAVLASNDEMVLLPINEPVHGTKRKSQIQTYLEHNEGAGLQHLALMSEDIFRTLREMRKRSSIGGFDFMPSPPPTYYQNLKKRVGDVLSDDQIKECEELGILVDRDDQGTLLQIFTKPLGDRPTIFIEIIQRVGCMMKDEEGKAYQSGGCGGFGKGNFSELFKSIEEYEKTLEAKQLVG
Test: HGD-coupled assay, maleylacetoacetate at […] nm
Format: biochemical

Row | IC50 (read-out: IC50) [µM] | SMILES | IC50 [µM]
1 | 2.49 | Cc1cc(O)c(C(=O)/C=C/c2ccccc2)c(=O)o1 [compound 3881, 3-cinnamoyl-4-hydroxy-6-methyl-2H-pyran-2-one] | 
2 |  | CS(=O)(=O)c1ccc(C(=O)C2C(=O)CCCC2=O)c([N+](=O)[O-])c1 [Control 1, mesotrione] | 0.204
